Results published in PubChem BioAssay AID248 (DTP/NCI, 2004).
Toxic doses and inconclusive results are not listed.

Tested on: L1210 leukemia ip in BDF1 mice, survival T/C
Assay: NCI In Vivo Anticancer Drug Screen. Data for tumor model L1210 Leukemia (intraperitoneal) in B6D2F1 (BDF1) mice
Conditions: endpoint: mean survival time, higher = longer survival
Procedure, shortened: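 Tumor was transplanted into mice, which were then dosed with test compound or vehicle alone. Survival was recorded for each group, and the treated figure was expressed relative to the control figure.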

[1] = dose: 100.0 mg/kg/injection, schedule: Q04DX003 (ip), vehicle: Klucel (hydroxypropylcellulose) (HPC)
[2] = dose: 200.0 mg/kg/injection, schedule: Q04DX003 (ip), vehicle: Klucel (hydroxypropylcellulose) (HPC)
[3] = dose: 400.0 mg/kg/injection, schedule: Q04DX003 (ip), vehicle: Klucel (hydroxypropylcellulose) (HPC)
[4] = dose: 100.0 mg/kg/injection, schedule: Q01DX001 (ip), vehicle: other
[5] = dose: 200.0 mg/kg/injection, schedule: Q01DX001 (ip), vehicle: other
[6] = dose: 400.0 mg/kg/injection, schedule: Q01DX001 (ip), vehicle: other
[7] = dose: 100.0 mg/kg/injection, schedule: Q01DX009 (ip), vehicle: saline with Tween-80
[8] = dose: 100.0 mg/kg/injection, schedule: Q04DX003 (ip), vehicle: saline with Tween-80
[9] = dose: 200.0 mg/kg/injection, schedule: Q01DX009 (ip), vehicle: saline with Tween-80
[10] = dose: 200.0 mg/kg/injection, schedule: Q04DX003 (ip), vehicle: saline with Tween-80
[11] = dose: 400.0 mg/kg/injection, schedule: Q01DX009 (ip), vehicle: saline with Tween-80
[12] = dose: 400.0 mg/kg/injection, schedule: Q04DX003 (ip), vehicle: saline with Tween-80
[13] = dose: 100.0 mg/kg/injection, schedule: Q01DX001 (ip), vehicle: saline
[14] = dose: 200.0 mg/kg/injection, schedule: Q01DX001 (ip), vehicle: saline
[15] = dose: 100.0 mg/kg/injection, schedule: Q04DX002 (ip), vehicle: saline
[16] = dose: 200.0 mg/kg/injection, schedule: Q04DX002 (ip), vehicle: saline
[17] = dose: 400.0 mg/kg/injection, schedule: Q04DX002 (ip), vehicle: saline
[18] = dose: 100.0 mg/kg/injection, schedule: Q01DX009 (ip), vehicle: Klucel (hydroxypropylcellulose) (HPC)
[19] = dose: 200.0 mg/kg/injection, schedule: Q01DX009 (ip), vehicle: Klucel (hydroxypropylcellulose) (HPC)
[20] = dose: 50.0 mg/kg/injection, schedule: Q01DX009 (ip), vehicle: Klucel (hydroxypropylcellulose) (HPC)
[21] = dose: 100.0 mg/kg/injection, schedule: Q04DX002 (ip), vehicle: saline with Tween-80
[22] = dose: 400.0 mg/kg/injection, schedule: Q04DX002 (ip), vehicle: saline with Tween-80
[23] = dose: 200.0 mg/kg/injection, schedule: Q04DX002 (ip), vehicle: saline with Tween-80
[24] = dose: 100.0 mg/kg/injection, schedule: Q01DX001 (ip), vehicle: Klucel (hydroxypropylcellulose) (HPC)
[25] = dose: 200.0 mg/kg/injection, schedule: Q01DX001 (ip), vehicle: Klucel (hydroxypropylcellulose) (HPC)
[26] = dose: 400.0 mg/kg/injection, schedule: Q01DX001 (ip), vehicle: Klucel (hydroxypropylcellulose) (HPC)

In the case of O=C1c2c(ccc3ccccc23)CCC1Br (centres undefined), the T/C [1] is reported as 97 % of control, the T/C [2] is reported as 101 % of control and the T/C [3] is reported as 103 % of control.

For Nc1nc2c(ncn2C(/C=N/Nc2ccccc2)OC(/C=N/Nc2ccccc2)CO)c(=O)[nH]1 (centres undefined), the T/C [4] was 98 % of control, the T/C [5] was 106 % of control and the T/C [6] was 108 % of control.

For Clc1ccc(N=CC2CCC=CO2)cc1 (centres undefined), the T/C (dose: 222.0 mg/kg/injection, schedule: Q01DX Z (ip), vehicle: saline) was 92 % of control, the T/C (dose: 333.0 mg/kg/injection, schedule: Q01DX Z (ip), vehicle: saline) was 95 % of control and the T/C (dose: 500.0 mg/kg/injection, schedule: Q01DX Z (ip), vehicle: saline) was 92 % of control.

With CCCCCCC(C)O[Si](C)c1ccc(OC)cc1 (centres undefined) the T/C [7] was 107 % of control, the T/C [8] was 98 % of control and the T/C [9] was 105 % of control. The T/C [10] was 101 % of control, the T/C [11] was 98 % of control and the T/C [12] was 102 % of control.

In the case of CCOC(=O)CN(CCN(CC)CC)c1ccc([N+](=O)[O-])cc1[N+](=O)[O-], the T/C [4] is reported as 92 % of control, the T/C [5] is reported as 87 % of control and the T/C [6] is reported as 100 % of control.

O=C(N/N=C\c1ccc(N(CCCl)CCCl)cc1[N+](=O)[O-])c1cccnc1 was tested, and the T/C (dose: 50.0 mg/kg/injection, schedule: Q01DX001 (ip), vehicle: saline) was 94 % of control, the T/C [13] was 113 % of control and the T/C [14] was 92 % of control.

NC(=O)NC(=O)NC1CCCCC1 was tested, and the T/C [1] was 102 % of control, the T/C [2] was 102 % of control and the T/C [3] was 100 % of control.

CN(C)CCCN1CCC2(CC1)NC(=O)NC2=O was tested, and the T/C [15] was 103 % of control, the T/C [16] was 103 % of control and the T/C [17] was 103 % of control.

In the case of Cc1cc(C)c2ccc(=O)[nH]c2n1, the T/C [13] is reported as 92 % of control, the T/C [14] is reported as 101 % of control and the T/C (dose: 400.0 mg/kg/injection, schedule: Q01DX001 (ip), vehicle: saline) is reported as 101 % of control.

Cc1ccc(/C=C/C(=O)c2ccc(Cl)cc2)cc1 was tested, and the T/C [7] was 108 % of control, the T/C [8] was 93 % of control and the T/C [9] was 94 % of control. The T/C [10] was 101 % of control, the T/C [11] was 97 % of control and the T/C [12] was 91 % of control.

In the case of CCCN=C(N)C(N)=NCCC, the T/C (dose: 100.0 mg/kg/injection, schedule: Q01DX009 (ip), vehicle: saline) is reported as 91 % of control, the T/C (dose: 100.0 mg/kg/injection, schedule: Q04DX003 (ip), vehicle: saline) is reported as 98 % of control and the T/C (dose: 200.0 mg/kg/injection, schedule: Q01DX009 (ip), vehicle: saline) is reported as 92 % of control. For the same compound, the T/C (dose: 200.0 mg/kg/injection, schedule: Q04DX003 (ip), vehicle: saline) was 98 % of control and the T/C (dose: 400.0 mg/kg/injection, schedule: Q04DX003 (ip), vehicle: saline) was 91 % of control.

With CCCCC(CC)C(=O)[O][Ge]([CH2]CCC)([CH2]CCC)[O]C(=O)C(CC)CCCC (centres undefined) the T/C (dose: 100.0 mg/kg/injection, schedule: Q01DX001 (ip), vehicle: saline with Tween-80) was 101 % of control, the T/C (dose: 200.0 mg/kg/injection, schedule: Q01DX001 (ip), vehicle: saline with Tween-80) was 100 % of control and the T/C (dose: 400.0 mg/kg/injection, schedule: Q01DX001 (ip), vehicle: saline with Tween-80) was 100 % of control.

With O=C(O)c1ccc(NC(=O)c2cccc(F)c2)cc1 the T/C [18] was 100 % of control, the T/C [19] was 108 % of control and the T/C (dose: 400.0 mg/kg/injection, schedule: Q01DX009 (ip), vehicle: Klucel (hydroxypropylcellulose) (HPC)) was 101 % of control.

For O=NN(CCCl)C(=O)N[C@H]1CCC[C@@H](C(=O)O)C1, the T/C (dose: 18.0 mg/kg/injection, schedule: Q01DX001 (ip), vehicle: Klucel (hydroxypropylcellulose) (HPC)) was 353 % of control, the T/C (dose: 26.0 mg/kg/injection, schedule: Q01DX001 (ip), vehicle: Klucel (hydroxypropylcellulose) (HPC)) was 426 % of control and the T/C (dose: 40.0 mg/kg/injection, schedule: Q01DX001 (ip), vehicle: Klucel (hydroxypropylcellulose) (HPC)) was 275 % of control. The T/C (dose: 60.0 mg/kg/injection, schedule: Q01DX001 (ip), vehicle: Klucel (hydroxypropylcellulose) (HPC)) was 216 % of control.

With O=C(/C=C/c1ccccc1)N/N=C/c1ccncc1 the T/C [15] was 91 % of control, the T/C [16] was 108 % of control and the T/C [17] was 112 % of control.

In the case of CC(O)/C(=N/Nc1ccc([N+](=O)[O-])cc1[N+](=O)[O-])C(=O)O (centres undefined), the T/C [20] is reported as 106 % of control, the T/C [18] is reported as 96 % of control and the T/C [1] is reported as 91 % of control. For the same compound, the T/C [19] was 96 % of control and the T/C [2] was 88 % of control.

For C=C(CCCCCCCCCCCCCCCC)C(=O)O, the T/C [21] was 91 % of control and the T/C [22] was 88 % of control.

Cc1cccc(N2C(=O)CSC2=S)c1 was tested, and the T/C (dose: 25.0 mg/kg/injection, schedule: Q01DX009 (ip), vehicle: saline with Tween-80) was 90 % of control and the T/C [7] was 92 % of control.

CC1(C)C(C#N)C(=O)N(Cc2ccccc2)C(=O)C1C#N (centres undefined) was tested, and the T/C [8] was 101 % of control and the T/C [10] was 93 % of control.

With CCCCP(=O)(CC(=O)O)c1ccccc1 (centres undefined) the T/C [21] was 97 % of control, the T/C [23] was 100 % of control and the T/C [22] was 90 % of control.

With NC(=S)c1ccc(Cl)cc1 the T/C [7] was 95 % of control, the T/C [21] was 101 % of control and the T/C [9] was 110 % of control. For the same compound, the T/C [23] was 97 % of control and the T/C [22] was 97 % of control.

For CC1(C(Cl)(Cl)Cl)C=CC(=NO)C=C1 (centres undefined), the T/C [8] was 110 % of control and the T/C [10] was 101 % of control.

In the case of Cc1cc(C(=O)O)c(C)n1-c1cccc(C(=O)O)c1, the T/C [20] is reported as 102 % of control, the T/C [24] is reported as 94 % of control and the T/C [18] is reported as 102 % of control. The T/C [25] was 102 % of control, the T/C [19] was 89 % of control and the T/C [26] was 91 % of control.

In the case of CCC1(O)C(=O)OCc2c1ccn(C)c2=O (centres undefined), the T/C (dose: 18.7 mg/kg/injection, schedule: Q01DX001 (ip), vehicle: saline) is reported as 113 % of control, the T/C (dose: 37.5 mg/kg/injection, schedule: Q01DX001 (ip), vehicle: saline) is reported as 105 % of control and the T/C (dose: 75.0 mg/kg/injection, schedule: Q01DX001 (ip), vehicle: saline) is reported as 102 % of control. For the same compound, the T/C (dose: 150.0 mg/kg/injection, schedule: Q01DX001 (ip), vehicle: saline) was 102 % of control.

With COC1C(OC(C)=O)C(OC(C)=O)C(OC(C)=O)C(OC(C)=O)C1OC(C)=O (centres undefined) the T/C (dose: 50.0 mg/kg/injection, schedule: Q01DX009 (ip), vehicle: saline with Tween-80) was 94 % of control, the T/C [7] was 98 % of control and the T/C [9] was 88 % of control.

COC(=N\S(=O)(=O)c1ccccc1)/C(=N\S(=O)(=O)c1ccccc1)OC was tested, and the T/C [24] was 100 % of control, the T/C [25] was 104 % of control and the T/C [26] was 102 % of control.

In the case of CCC(=O)OC1(c2ccccc2)CCN(C2CC2)CC1, the T/C (dose: 25.0 mg/kg/injection, schedule: Q01DX001 (ip), vehicle: Klucel (hydroxypropylcellulose) (HPC)) is reported as 92 % of control, the T/C (dose: 50.0 mg/kg/injection, schedule: Q01DX001 (ip), vehicle: Klucel (hydroxypropylcellulose) (HPC)) is reported as 97 % of control and the T/C [24] is reported as 100 % of control.

For COc1cc(C=Nc2cccc(Cl)c2)ccc1N(CCCl)CCCl, the T/C (dose: 12.5 mg/kg/injection, schedule: Q01DX Z (ip), vehicle: carboxymethylcellulose (CMC)) was 122 % of control, the T/C (dose: 25.0 mg/kg/injection, schedule: Q01DX Z (ip), vehicle: carboxymethylcellulose (CMC)) was 120 % of control and the T/C (dose: 35.0 mg/kg/injection, schedule: Q01DX015 (ip), vehicle: carboxymethylcellulose (CMC)) was 87 % of control.

For Cn1c(=O)c2[nH]c(-c3cccs3)nc2n(C)c1=O, the T/C (dose: 50.0 mg/kg/injection, schedule: Q01DX001 (ip), vehicle: other) was 101 % of control, the T/C [4] was 90 % of control and the T/C [5] was 97 % of control. For the same compound, the T/C [6] was 92 % of control.

With CCCCCCCCOC(=O)Nc1ccc(S(=O)(=O)CC)cc1 the T/C (dose: 100.0 mg/kg/injection, schedule: Q01DX001 (ip), vehicle: carboxymethylcellulose (CMC)) was 91 % of control, the T/C (dose: 200.0 mg/kg/injection, schedule: Q01DX001 (ip), vehicle: carboxymethylcellulose (CMC)) was 89 % of control and the T/C (dose: 400.0 mg/kg/injection, schedule: Q01DX001 (ip), vehicle: carboxymethylcellulose (CMC)) was 89 % of control.
